These compounds were tested against Acetyl-CoA carboxylase 2 (Homo sapiens, UniProt O00763) (assay: Spectrophotometric 384 Well Assay: Malonyl CoA formation by acetyl CoA carboxylases is stoichometrically linked to the consumption of ATP. ACC2 activity is measured in a NADH-linked kinetic method measuring ADP generated during the ACC reaction using a coupled lactate dehydrogenase/pyruvate kinase reaction.For biological testing, a human ACC2 construct which lacks the 128 amino acids at the N-terminus for increased solubility (nt 385-6966 in Genbank entry AJ575592) is cloned. The protein is then expressed in insect cells using a baculoviral expression system. Protein purification is performed by anion exchange.All compounds are dissolved in dimethyl sulfoxide (DMSO) to a concentration of 10 mM.Assay reactions are then carried out in 384-well plates, with hACC2 in an appropriate dilution and at final assay concentrations (f.c.) of 100 mM Tris (pH 7.5), 10 mM trisodium citrate, 25 mM KHCO3, 10 mM MgCl2, 0.5 mg/mL BSA, 3.75 mM reduced L-glutathione, 15 U/mL lactate dehydrogenase, 0.5 mM phosphoenolpyruvate.).
Acetyl-CoA carboxylase 2, sequence (O00763 whole entry): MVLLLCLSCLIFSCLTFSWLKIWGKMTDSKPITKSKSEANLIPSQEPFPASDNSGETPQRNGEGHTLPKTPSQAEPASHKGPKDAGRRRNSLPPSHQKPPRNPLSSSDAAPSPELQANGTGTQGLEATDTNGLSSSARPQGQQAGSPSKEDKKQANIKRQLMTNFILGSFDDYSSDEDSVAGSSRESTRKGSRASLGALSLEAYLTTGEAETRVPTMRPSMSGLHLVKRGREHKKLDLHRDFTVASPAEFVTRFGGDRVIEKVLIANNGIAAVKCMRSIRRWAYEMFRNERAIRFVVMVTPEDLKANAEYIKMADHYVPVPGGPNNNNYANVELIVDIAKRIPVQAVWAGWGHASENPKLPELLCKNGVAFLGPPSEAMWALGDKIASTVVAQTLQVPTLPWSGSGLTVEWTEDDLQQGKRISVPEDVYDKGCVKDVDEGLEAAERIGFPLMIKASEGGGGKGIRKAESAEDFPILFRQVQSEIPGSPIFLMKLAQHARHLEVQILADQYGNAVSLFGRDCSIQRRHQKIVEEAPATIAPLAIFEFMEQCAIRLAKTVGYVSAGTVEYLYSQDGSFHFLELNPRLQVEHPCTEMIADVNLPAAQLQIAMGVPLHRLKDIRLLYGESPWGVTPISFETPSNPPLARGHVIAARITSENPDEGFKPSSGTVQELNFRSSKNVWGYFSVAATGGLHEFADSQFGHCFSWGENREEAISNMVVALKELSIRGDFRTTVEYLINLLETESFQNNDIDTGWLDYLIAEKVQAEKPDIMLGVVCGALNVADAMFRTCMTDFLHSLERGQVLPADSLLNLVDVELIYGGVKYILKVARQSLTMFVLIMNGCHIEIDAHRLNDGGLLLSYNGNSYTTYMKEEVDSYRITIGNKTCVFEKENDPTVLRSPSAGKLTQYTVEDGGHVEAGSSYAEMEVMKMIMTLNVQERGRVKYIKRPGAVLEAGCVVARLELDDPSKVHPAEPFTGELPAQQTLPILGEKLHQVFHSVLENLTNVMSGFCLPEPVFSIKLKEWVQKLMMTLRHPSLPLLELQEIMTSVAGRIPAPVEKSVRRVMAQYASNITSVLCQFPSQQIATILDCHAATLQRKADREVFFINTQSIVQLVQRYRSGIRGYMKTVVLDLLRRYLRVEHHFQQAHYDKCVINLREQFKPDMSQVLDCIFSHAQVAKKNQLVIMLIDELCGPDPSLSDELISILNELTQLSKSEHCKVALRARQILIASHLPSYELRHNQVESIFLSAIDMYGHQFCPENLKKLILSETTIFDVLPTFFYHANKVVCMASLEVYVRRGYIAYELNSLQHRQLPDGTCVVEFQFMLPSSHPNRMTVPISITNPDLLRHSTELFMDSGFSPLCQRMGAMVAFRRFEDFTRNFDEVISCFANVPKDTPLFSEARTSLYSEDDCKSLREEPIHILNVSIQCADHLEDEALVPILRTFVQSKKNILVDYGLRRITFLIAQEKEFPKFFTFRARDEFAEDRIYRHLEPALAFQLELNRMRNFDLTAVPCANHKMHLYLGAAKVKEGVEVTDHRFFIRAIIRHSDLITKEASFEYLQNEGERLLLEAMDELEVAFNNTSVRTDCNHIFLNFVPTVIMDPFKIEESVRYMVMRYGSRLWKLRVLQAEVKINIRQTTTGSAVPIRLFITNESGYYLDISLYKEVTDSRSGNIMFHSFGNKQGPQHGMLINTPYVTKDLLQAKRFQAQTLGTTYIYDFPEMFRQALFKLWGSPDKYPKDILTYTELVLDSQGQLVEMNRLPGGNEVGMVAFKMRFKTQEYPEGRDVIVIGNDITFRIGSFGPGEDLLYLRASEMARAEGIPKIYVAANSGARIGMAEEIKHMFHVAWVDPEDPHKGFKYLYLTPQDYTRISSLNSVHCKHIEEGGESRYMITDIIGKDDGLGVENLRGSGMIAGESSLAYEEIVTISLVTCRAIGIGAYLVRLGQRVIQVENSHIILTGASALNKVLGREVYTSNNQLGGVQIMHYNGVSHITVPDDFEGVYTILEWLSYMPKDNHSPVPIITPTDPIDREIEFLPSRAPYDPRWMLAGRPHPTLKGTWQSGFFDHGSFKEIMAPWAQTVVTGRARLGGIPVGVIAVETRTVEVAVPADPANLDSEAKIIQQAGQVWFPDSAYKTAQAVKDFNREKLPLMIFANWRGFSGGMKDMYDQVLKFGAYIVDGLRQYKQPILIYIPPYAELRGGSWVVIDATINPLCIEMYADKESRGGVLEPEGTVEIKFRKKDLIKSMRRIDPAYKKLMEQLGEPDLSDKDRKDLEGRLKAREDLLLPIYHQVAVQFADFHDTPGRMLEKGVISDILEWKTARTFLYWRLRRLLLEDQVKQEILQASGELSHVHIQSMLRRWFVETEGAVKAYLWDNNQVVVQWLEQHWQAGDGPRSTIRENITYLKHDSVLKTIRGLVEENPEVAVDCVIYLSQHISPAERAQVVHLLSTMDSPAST

SMILES | IC50
CCOc1ccc(C#Cc2ccc(CC(C)NC(=O)CC3CC3)cc2)cc1 (centres undefined) | 0.79 µM
CC(=O)NC(C)Cc1ccc(C#Cc2ccc(C(=O)NCC(C)C)cc2)cc1 (centres undefined) | 4.2 µM
CC(=O)NC(C)Cc1ccc(C#Cc2cccc(C(=O)N3CCC3)c2)cc1 (centres undefined) | 2.1 µM
CC(=O)NC(C)Cc1ccc(C#Cc2ccnc(NCC(F)F)n2)cc1 (centres undefined) | 9.9 µM

— ChEMBL document CHEMBL3639333, “Compounds, pharmaceutical compositions and uses thereof” (2014)
